Values after ≈ are worked out from the molar mass of the structure shown.
Legend:
Format in all cases: cell-based
[1] = system: Staphylococcus epidermidis; test: MIC by agar dilution, SEPI 30593; conditions: for Antibacterial Activity Minimum Inhibitory Concentration SEPI 30593: strain SEPI 30593; for MIC: Staphylococcus epidermidis, strain SEPI 30593, read-out: Antibacterial Activity Minimum Inhibitory Concentration SEPI 30593
Source text: (§1) The in vitro activity of compounds of this invention can be assessed by standard testing procedures such as the determination of minimum inhibitory concentration (MIC) by agar dilution as described in “Approved Standard.

[2] = system: Streptococcus pneumoniae; test: MIC by agar dilution, SPNE 9912; conditions: for Antibacterial Activity Minimum Inhibitory Concentration SPNE 9912: strain SPNE 9912; for MIC: Streptococcus pneumoniae, strain SPNE 9912, read-out: Antibacterial Activity Minimum Inhibitory Concentration SPNE 9912
Source text: as §1

[3] = system: Enterococcus faecalis; test: MIC by agar dilution, EFAE 9217; conditions: for Antibacterial Activity Minimum Inhibitory Concentration EFAE 9217: strain EFAE 9217; for MIC: Enterococcus faecalis, strain EFAE 9217, read-out: Antibacterial Activity Minimum Inhibitory Concentration EFAE 9217
Source text: as §1

[4] = system: H. influenzae; test: MIC by agar dilution, HINF 30063; conditions: for Antibacterial Activity Minimum Inhibitory Concentration HINF 30063: strain HINF 30063; for MIC: Haemophilus influenzae, strain HINF 30063, read-out: Antibacterial Activity Minimum Inhibitory Concentration HINF 30063
Source text: as §1

[5] = system: Streptococcus pyogenes; test: MIC by agar dilution, SPYO 152; conditions: for Antibacterial Activity Minimum Inhibitory Concentration SPYO 152: strain SPYO 152; for MIC: Streptococcus pyogenes, strain SPYO 152, read-out: Antibacterial Activity Minimum Inhibitory Concentration SPYO 152
Source text: as §1

[6] = system: Enterococcus faecium; test: MIC by agar dilution, EFAE 12712; conditions: for Antibacterial Activity Minimum Inhibitory Concentration EFAE 12712: strain EFAE 12712; for MIC: Enterococcus faecium, strain EFAE 12712, read-out: Antibacterial Activity Minimum Inhibitory Concentration EFAE 12712
Source text: as §1

[7] = system: Staphylococcus aureus; test: MIC by agar dilution, SAUR 9213; conditions: for Antibacterial Activity Minimum Inhibitory Concentration SAUR 9213: strain SAUR 9213; for MIC: Staphylococcus aureus, strain SAUR 9213, read-out: Antibacterial Activity Minimum Inhibitory Concentration SAUR 9213
Source text: as §1

[8] = system: Moraxella catarrhalis; test: MIC by agar dilution, MCAT 30607; conditions: for Antibacterial Activity Minimum Inhibitory Concentration MCAT 30607: strain MCAT 30607; for MIC: Moraxella catarrhalis, strain MCAT 30607, read-out: Antibacterial Activity Minimum Inhibitory Concentration MCAT 30607
Source text: as §1

SMILES | Antibacterial Activity Minimum Inhibitory Concentration SEPI 30593 [1] [µg/mL] | Antibacterial Activity Minimum Inhibitory Concentration SPNE 9912 [2] [µg/mL] | Antibacterial Activity Minimum Inhibitory Concentration EFAE 9217 [3] [µg/mL] | Antibacterial Activity Minimum Inhibitory Concentration HINF 30063 [4] [µg/mL] | Antibacterial Activity Minimum Inhibitory Concentration SPYO 152 [5] [µg/mL] | Antibacterial Activity Minimum Inhibitory Concentration EFAE 12712 [6] [µg/mL] | Antibacterial Activity Minimum Inhibitory Concentration SAUR 9213 [7] [µg/mL] | Antibacterial Activity Minimum Inhibitory Concentration MCAT 30607 [8] [µg/mL] | MIC [1] [µg/mL] | MIC [2] [µg/mL] | MIC [3] [µg/mL] | MIC [4] [µg/mL] | MIC [5] [µg/mL] | MIC [6] [µg/mL] | MIC [7] [µg/mL] | MIC [8] [µg/mL]
CC(=O)NC[C@H]1CN(c2ccc(C3CCS(=N)(=O)CC3)c(F)c2)C(=O)O1 (single isomer, unassigned) [Example 4] | 2 | 1 | 2 | 8 | 1 | 4 | 16 | 4 |  |  |  |  |  |  |  | 
CC(=O)NC[C@H]1CN(c2ccc(C3CCS(=N)(=O)CC3)c(F)c2)C(=O)O1 (single isomer, unassigned) [Example 8] | 1 | 0.5 | 2 | 8 | 1 | 2 | 8 | 2 |  |  |  |  |  |  |  | 
CC(=S)NC[C@H]1CN(c2ccc(C3CCS(=N)(=O)CC3)c(F)c2)C(=O)O1 (single isomer, unassigned) [Example 9] | 0.125 | 0.25 | 0.5 | 2 | 0.25 | 0.5 | 0.5 | 2 |  |  |  |  |  |  |  | 
CCC(=S)NC[C@H]1CN(c2ccc(C3CCS(=N)(=O)CC3)c(F)c2)C(=O)O1 (single isomer, unassigned) [Example 10] | 0.25 | 0.25 | 0.5 | 2 | 0.25 | 0.5 | 1 | 2 |  |  |  |  |  |  |  | 
N=S1(=O)CCC(c2ccc(N3C[C@H](CNC(=S)C4CC4)OC3=O)cc2F)CC1 (single isomer, unassigned) [Example 11] | 0.5 | 0.25 | 0.5 | 4 | 0.25 | 0.5 | 1 | 1 |  |  |  |  |  |  |  | 
CC(=O)N=S1(=O)CCC(c2ccc(N3C[C@H](CNC(C)=O)OC3=O)cc2F)CC1 (single isomer, unassigned) [Example 12] | 1 | 0.5 | 2 | 16 | 1 |  | 8 | 8 |  |  |  |  |  |  |  | 
CCC(=S)NC[C@H]1CN(c2ccc(C3CCS(=O)(=NC(C)=O)CC3)c(F)c2)C(=O)O1 (single isomer, unassigned) [Example 14] | 0.5 | 0.25 | 0.5 | 4 | 0.25 | 1 | 1 | 2 |  |  |  |  |  |  |  | 
CCOC(=O)CN=S1(=O)CCC(c2ccc(N3C[C@H](CNC(=S)CC)OC3=O)cc2F)CC1 (single isomer, unassigned) [Example 20] | 1 | 4 | 1 | 8 | 16 | 1 | 2 | 4 |  |  |  |  |  |  |  | 
CCC(=S)NC[C@H]1CN(c2ccc(C3CCS(=O)(=NCCO)CC3)c(F)c2)C(=O)O1 (single isomer, unassigned) [Example 24] | 0.5 | 0.25 | 1 | 4 | 0.5 | 1 | 2 | 4 |  |  |  |  |  |  |  | 
COC(=O)N=S1(=O)CCC(c2ccc(N3C[C@H](CNC(=S)C4CC4)OC3=O)cc2F)CC1 (single isomer, unassigned) [Example 30] | 0.5 | 0.125 | 0.5 | 4 | 0.5 | 0.5 | 1 | 0.5 |  |  |  |  |  |  |  | 
CC(=O)NC[C@H]1CN(c2ccc(C3CCS(=O)(=NC(=O)OCc4ccccc4)CC3)c(F)c2)C(=O)O1 (single isomer, unassigned) [Example 33] | 2 | 1 | 4 | 64 | 1 | 4 | 8 | 16 |  |  |  |  |  |  |  | 
CC(=O)NC[C@H]1CN(c2ccc(C3CCS(=O)(=NC(=O)NCc4ccccc4)CC3)c(F)c2)C(=O)O1 (single isomer, unassigned) [Example 34] | 2 | 1 | 4 | 32 | 2 | 4 | 16 | 16 |  |  |  |  |  |  |  | 
CC(=S)NC[C@H]1CN(c2ccc(N3CCS(=N)(=O)CC3)c(F)c2)C(=O)O1 [Example 1, N-({(5S)-3-[3-Fluoro-4-(1-imino-1-oxido-1λ^4,4-thiazinan-4-yl)phenyl]-2-oxo-1,3-oxazolidin-5-yl}methyl)ethanethioamide] | 0.5 | 0.25 | 1 | 4 | 0.25 | 1 | 1 | 2 |  |  |  |  |  |  |  | 
CCC(=S)NC[C@H]1CN(c2ccc([C@H]3CC[S@+2]([O-])([N-]C)CC3)c(F)c2)C(=O)O1 [Example 13, N-({(5S)-3-[3-Fluoro-4-[1-(methylimino)-1-oxidohexahydro-1λ^4-thiopyran-4-yl]phenyl]-2-oxo-1,3-oxazolidin-5-yl}methyl)propanethioamide, Z-isomer] |  |  |  |  |  |  |  |  | 0.5 (≈ 1.17 µM) | 0.25 (≈ 0.585 µM) | 0.5 (≈ 1.17 µM) | 8 (≈ 18.7 µM) | 0.25 (≈ 0.585 µM) | 1 (≈ 2.34 µM) | 1 (≈ 2.34 µM) | 2 (≈ 4.68 µM)
CCC(=S)NC[C@H]1CN(c2ccc(N3CCS(=O)(=NC)CC3)c(F)c2)C(=O)O1 [Example 25, N-[((5S)-3-{3-Fluoro-4-[1-(methylimino)-1-oxido-1λ^4,4-thiazinan-4-yl]phenyl}-2-oxo-1,3-oxazolidin-5-yl)methyl]propanethioamide] |  |  |  |  |  |  |  |  | 0.5 (≈ 1.17 µM) | 0.25 (≈ 0.583 µM) | 1 (≈ 2.33 µM) | 4 (≈ 9.33 µM) | 0.5 (≈ 1.17 µM) | 1 (≈ 2.33 µM) | 2 (≈ 4.67 µM) | 4 (≈ 9.33 µM)

Source: patent publication US20010046987A1, “Oxazolidinones having a sulfoximine functionality” (priority 1999, published 2001)
